“And” between values parts separate entries of the source, which are not always exact repeats. Equal entries are not always repeated.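 All cell lines were grown in 96-well plates and treated with compound for 48 hours. The concentration for 50% growth inhibition is given as GI50. TGI: concentration producing complete growth inhibition.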 Some results are limits rather than exact numbers.

The subject of the first assay is IGROV1 ovarian. Nature of the assay: DTP human tumour cell line panel, 48 h.
Take `Cc1cc(C)c(/C=C2\C(=O)Nc3ccc(NC(=O)CCCCCCC(=O)NO)cc32)[nH]1`: the GI50 (as a rule, the concentration giving 50% growth inhibition) was 2.86 µM and the TGI (commonly the concentration giving total growth inhibition) was above 100 µM.

With `CC(=O)[O][Ga]([Br])[O]C(C)=O`, the GI50 was above 100 µM and the TGI is above 100 µM.

`COc1cc2c(OC)cc1CSCc1sc(C)c(c1Br)CSC2` had a TGI above 100 µM.

`CC(C)N(C(=O)C12C3C4C1(I)C1C2C3(I)C41C(=O)N(C(C)C)C(C)C)C(C)C` (stereo unspecified): the TGI is above 100 µM.

With `Cc1cccc(C)c1NC(=O)C(=O)C(C(=O)c1ccccc1-c1ccccc1)C1OC(=O)c2ccccc21` (stereo unspecified), the TGI is 64.1 µM.

For the compound `CC1COC(C)(C)P(=O)(c2ccccc2)C1` (stereo unspecified), the TGI is above 100 µM.

In the case of `Cc1ccc(S(=O)(=O)c2ccc(N)cc2)cc1`, the TGI was above 100 µM.

`CCOP(=O)(OCC)OC1C=CC2CCC1C2` (stereo unspecified) displayed a TGI above 100 µM.

Regarding `COC(=O)[C@H]1C=C[C@@H](C)n2c(=O)c3cc4ccccc4cc3c(=O)n21`, the TGI is above 100 µM.

Turning to `COc1cc(C=O)c(-c2cc(OC)c(OC)cc2C=O)cc1OC`, the TGI is above 100 µM.

`N#CC(C(=O)C(=O)Nc1ccc(Cl)cc1)c1ccccc1` (stereo unspecified) registered a TGI above 100 µM.

For the compound `COc1c[c]([Hg][O]C(C)=O)c(OC)c(NC(=O)CC(C)=O)[c]1[Hg][O]C(C)=O`, the GI50 is 11 µM and the TGI was 23.9 µM.

The compound `COC(=O)/C=C1\CCC(C)O1` (stereo unspecified) showed a TGI above 100 µM.

As to `O=C(/C=C/c1ccccc1Cl)NC1C=Nc2ccc([N+](=O)[O-])cc2NC1` (stereo unspecified), the TGI was above 100 µM.

For `CCCO/S(=N\S(=O)(=O)c1ccccc1)c1ccccc1[N+](=O)[O-]` (stereo unspecified), the TGI was above 100 µM.

In turn, `Cc1ccc(C)c(N=C2NC(=O)C(CC(=O)Nc3ccc(Cl)cc3Cl)S2)c1` (stereo unspecified) registered a concentration for total growth inhibition (TGI) above 100 µM.

`C/C(CC(=O)Nc1cccc(Cl)c1C)=N\NC(=O)c1ccncc1`: the TGI is above 100 µM.

Take `Cc1cc(NS(=O)(=O)c2ccc(Nc3c4ccccc4nc4c(C(=O)N5CCN(CCO)CC5)ccc(Cl)c34)cc2)no1`: the concentration for total growth inhibition (TGI) is above 100 µM.

For `COC(=O)[C@@H](C)C[C@H](Cc1ccccc1)NC(=O)c1csc([C@@H](C[C@H](C(C)C)N(C)C(=O)[C@@H](NC(=O)[C@H]2CCCCN2C)C2CCCCC2)OC(C)=O)n1`, the GI50 was 0.000631 µM and 0.0025 µM; the TGI was above 25 µM.

Take `Cc1nc([N+](=O)[O-])cn1CC(=N)N`: the TGI was above 100 µM.

Take `COC(=O)/C=C/c1c(CC=C(C)C)ncn1C`: the TGI is above 100 µM.

The compound `CC(C)C(=O)Nc1nc2c(ncn2C2OC(CO)C(O)C2O)c(=O)[nH]1` (stereo unspecified) displayed a total growth inhibition concentration (TGI) above 100 µM.

`O=S(=O)(c1ccccc1)C1CN2OC1(S(=O)(=O)c1ccccc1)CC2c1ccc(Br)cc1` (stereo unspecified) registered a TGI above 100 µM.

As for `O=Cc1ccc2c(c1-c1c(C=O)ccc3c1OCO3)OCO2`, the TGI is above 100 µM.

Take `CC(=O)O[C@H]1CCC2[C@@H]3CCC4Nc5[nH]ncc5C[C@]4(C)C3CC[C@@]21C` (stereo partly specified): the TGI was above 100 µM.

`Cc1cc(C)nc(NS(=O)(=O)c2ccc(NC(=O)c3cccc4c(Nc5ccc(S(N)(=O)=O)cc5)c5ccccc5nc34)cc2)n1` came in with a TGI of 28.4 µM.

Take `Cc1cc(S(=O)(=O)O)c(NC(=O)C(=O)Cc2cc(=O)oc3cc(O)ccc23)cc1Cl`: the total growth inhibition concentration (TGI) is above 100 µM.

The next assay concerns SF-295 CNS. Put plainly: DTP human tumour cell line panel, 48 h.
Regarding `CC(C)C(=O)NS(=O)(=O)c1ccccc1`, the TGI was above 100 µM.

`COC1(OC)CC2C(=O)N(Cc3ccccc3)C1C=C2S(=O)(=O)c1ccccc1` (stereo unspecified) registered a TGI above 100 µM.

Consider `Cc1cc(C)c(/C=C2\C(=O)Nc3ccc(NC(=O)CCCCCCC(=O)NO)cc32)[nH]1`, for which the GI50 is 1.44 µM and the TGI is above 45.7 µM.

As to `CC(=O)[O][Ga]([Br])[O]C(C)=O`, the GI50 is above 100 µM and the TGI was above 100 µM.

The compound `COc1cc2c(OC)cc1CSCc1sc(C)c(c1Br)CSC2` registered a TGI above 100 µM.

For the compound `CC(C)N(C(=O)C12C3C4C1(I)C1C2C3(I)C41C(=O)N(C(C)C)C(C)C)C(C)C` (stereo unspecified), the TGI is above 100 µM.

Regarding `Cc1cccc(C)c1NC(=O)C(=O)C(C(=O)c1ccccc1-c1ccccc1)C1OC(=O)c2ccccc21` (stereo unspecified), the TGI is above 100 µM.

With `CC1COC(C)(C)P(=O)(c2ccccc2)C1` (stereo unspecified), the TGI is above 100 µM.

Regarding `Cc1ccc(S(=O)(=O)c2ccc(N)cc2)cc1`, the TGI is above 100 µM.

As for `CCOP(=O)(OCC)OC1C=CC2CCC1C2` (stereo unspecified), the TGI is above 100 µM.

Take `COC(=O)[C@H]1C=C[C@@H](C)n2c(=O)c3cc4ccccc4cc3c(=O)n21`: the TGI is above 100 µM.

`COc1cc(C=O)c(-c2cc(OC)c(OC)cc2C=O)cc1OC` displayed a TGI above 100 µM.

`N#CC(C(=O)C(=O)Nc1ccc(Cl)cc1)c1ccccc1` (stereo unspecified): the TGI was above 100 µM.

For the compound `COc1c[c]([Hg][O]C(C)=O)c(OC)c(NC(=O)CC(C)=O)[c]1[Hg][O]C(C)=O`, the GI50 was above 41.7 µM and the TGI was above 55.8 µM.

The compound `COC(=O)/C=C1\CCC(C)O1` (stereo unspecified) displayed a TGI above 100 µM.

On to `O=C(/C=C/c1ccccc1Cl)NC1C=Nc2ccc([N+](=O)[O-])cc2NC1` (stereo unspecified), for which the TGI is above 100 µM.

Take `CCCO/S(=N\S(=O)(=O)c1ccccc1)c1ccccc1[N+](=O)[O-]` (stereo unspecified): the TGI is above 100 µM.

In the case of `Cc1ccc(C)c(N=C2NC(=O)C(CC(=O)Nc3ccc(Cl)cc3Cl)S2)c1` (stereo unspecified), the TGI was above 100 µM.

For `C/C(CC(=O)Nc1cccc(Cl)c1C)=N\NC(=O)c1ccncc1`, the TGI was above 100 µM.

In the case of `Cc1cc(NS(=O)(=O)c2ccc(Nc3c4ccccc4nc4c(C(=O)N5CCN(CCO)CC5)ccc(Cl)c34)cc2)no1`, the TGI is above 100 µM.

For `COC(=O)[C@@H](C)C[C@H](Cc1ccccc1)NC(=O)c1csc([C@@H](C[C@H](C(C)C)N(C)C(=O)[C@@H](NC(=O)[C@H]2CCCCN2C)C2CCCCC2)OC(C)=O)n1`, the GI50 is 0.000346 µM and 0.0025 µM; the concentration for total growth inhibition (TGI) is above 25 µM.

On to `Cc1nc([N+](=O)[O-])cn1CC(=N)N`, for which the TGI was above 100 µM.

Regarding `COC(=O)/C=C/c1c(CC=C(C)C)ncn1C`, the TGI was above 100 µM.

In the case of `CC(C)C(=O)Nc1nc2c(ncn2C2OC(CO)C(O)C2O)c(=O)[nH]1` (stereo unspecified), the TGI is above 100 µM.

Consider `O=S(=O)(c1ccccc1)C1CN2OC1(S(=O)(=O)c1ccccc1)CC2c1ccc(Br)cc1` (stereo unspecified), for which the TGI was above 100 µM.

`O=Cc1ccc2c(c1-c1c(C=O)ccc3c1OCO3)OCO2` showed a TGI above 100 µM.

Values taken from PubChem BioAssay (NCI).
